Laboratory results as given in the NIST ThermoML archive (doi:10.1016/j.jct.2016.09.031).
± gives the expanded uncertainty stated by the source.

What was measured:
[1] = molar heat capacity at constant pressure; mn = molality of the nth substance listed, in mol/kg; conditions: 298.15 K, 100 kPa, Liquid, Flow calorimetry
[2] = molar heat capacity at constant pressure; conditions: 298.15 K; 101.33 kPa; Liquid; Flow calorimetry

[Cl-].[Rb+] [rubidium chloride] + O
molar heat capacity at constant pressure ([1]; m1 = 0.4938): 73.89 ± 1.5 J/K/mol | molar heat capacity at constant pressure ([1]; m1 = 0.8703): 73.2 ± 1.5 J/K/mol | molar heat capacity at constant pressure ([1]; m1 = 1.515): 71.66 ± 1.4 J/K/mol | molar heat capacity at constant pressure ([1]; m1 = 2.41): 69.91 ± 1.4 J/K/mol | molar heat capacity at constant pressure ([1]; m1 = 3.388): 68.46 ± 1.4 J/K/mol | molar heat capacity at constant pressure ([1]; m1 = 4.213): 67.56 ± 1.4 J/K/mol | molar heat capacity at constant pressure ([1]; m1 = 4.888): 67.01 ± 1.3 J/K/mol | molar heat capacity at constant pressure ([1]; m1 = 5.84): 66.18 ± 1.3 J/K/mol

O [water] + [Cl-].[Rb+]
molar heat capacity at constant pressure ([1]; m2 = 0): 75.11 ± 1.5 J/K/mol

O [water]
molar heat capacity at constant pressure [2]: 75.11 ± 1.5 J/K/mol

[Cl-].[Na+] [sodium chloride] + O
molar heat capacity at constant pressure ([1]; m1 = 2.05): 72.32 ± 1.5 J/K/mol

[Cl-].[Cs+] [cesium chloride] + O
molar heat capacity at constant pressure ([1]; m1 = 0.2644): 74.19 ± 1.5 J/K/mol | molar heat capacity at constant pressure ([1]; m1 = 0.5336): 73.52 ± 1.5 J/K/mol | molar heat capacity at constant pressure ([1]; m1 = 1.066): 72.48 ± 1.5 J/K/mol | molar heat capacity at constant pressure ([1]; m1 = 2.018): 70.13 ± 1.4 J/K/mol | molar heat capacity at constant pressure ([1]; m1 = 3.02): 68.3 ± 1.4 J/K/mol | molar heat capacity at constant pressure ([1]; m1 = 3.877): 67.71 ± 1.4 J/K/mol | molar heat capacity at constant pressure ([1]; m1 = 5.674): 66.01 ± 1.3 J/K/mol | molar heat capacity at constant pressure ([1]; m1 = 6.822): 65.63 ± 1.3 J/K/mol

O [water] + [Cl-].[Cs+]
molar heat capacity at constant pressure ([1]; m2 = 0): 75.11 ± 1.5 J/K/mol
